The values that follow come from PubChem BioAssay AID179 (DTP/NCI, 2004).

Calls of active or inactive are those of the source.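 The calls were made as follows: active = compounds giving half or more protection of infected cells from virus-caused growth loss, again on retest; inactive = the rest.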 Bounds are passed on as bounds.

For the experiment, the system named is CEM cells HIV-1 protection, formazan growth assay. Kind of experiment: NCI AIDS Antiviral Assay. As to conditions: for IC50: measured here: growth of uninfected CEM cells. In a few lines:
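Protection of CEM cells against HIV-1 was scored from cell growth (soluble formazan) across five concentrations, with parallel uninfected cells. Lack of protection may reflect toxicity.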

As usually defined, the EC50 is the midpoint of the concentration-response curve. Usually IC50 stands for the point on the concentration scale where inhibition reaches its midpoint. Low readings indicate greater potency in that assay, high ones weaker potency in that assay.

Consider `Cc1cc(C)nc(NS(=O)(=O)c2ccc(Nc3c4ccccc4nc4c(C(=O)N5CCN(CCO)CC5)cccc34)cc2)n1`, for which the EC50 was more than 36.3 µM and the IC50 is more than 36.3 µM.

In the case of `CC(C)(C)C(=O)/C=C/c1ccccc1Cl`, the EC50 was more than 23.4 µM and the half-maximal inhibitory concentration (IC50) is more than 23.4 µM.

On to `CC(C)C(OC(=O)c1ccc(NCc2cc(O)ccc2O)cc1)C(C)C`, for which the EC50 was more than 200 µM and the IC50 is 1.41 µM.

For `CSCCC(NCc1c(O)ccc2c(-c3ccccc3)cc(=O)oc12)C(=O)O` (stereo unspecified), the EC50 was more than 200 µM and the IC50 is more than 200 µM.

For `O=C(OCCN=c1c2ccccc2ccc2ccccc12)c1ccc([N+](=O)[O-])cc1`, the EC50 was more than 200 µM and the half-inhibitory concentration (IC50) was more than 200 µM.

Turning to `CC(C)(C)c1cc2c(O)c(c1)COCc1cc(C(C)(C)C)cc(c1O)COCc1cc(C(C)(C)C)cc(c1O)COC2`, the EC50 was more than 200 µM and the half-inhibitory concentration (IC50) is 145 µM.

With `COc1ccc(N2C(=O)[C@H]3CC(C)c4c([nH]c5ccccc45)[C@H]3C2=O)cc1` (stereo partly specified), the EC50 was more than 41.7 µM and the IC50 stood at 0.871 µM.

Turning to `Cc1n[n+](Cc2ccccc2)c2sc(N)nn12`, the EC50 was more than 200 µM and the half-inhibitory concentration (IC50) worked out at 40.7 µM.

On to `CN(N)P(=O)(c1ccccc1)N(C)N`, for which the EC50 was more than 1150 µM and the IC50 amounted to 501 µM.

With `CCCCCCc1nn2c(-c3ccc(C)cc3)nnc2s1`, the EC50 is more than 200 µM and the IC50 is more than 200 µM.

Turning to `Nc1nc(Cl)c(N)c(NCC2(CO)CCC2)n1`, the EC50 is more than 200 µM and the IC50 was 115 µM.

As to `c1ccc(N2CCN(c3ccccc3)C2)cc1`, the EC50 was more than 200 µM and the IC50 was more than 200 µM.

In the case of `COC(=O)C1=C(O)C(O)=C(C(=O)OC)C1`, the 50% effective concentration (EC50) was 407 µM and the half-inhibitory concentration (IC50) amounted to 955 µM.

For the compound `O=C(Cc1ccc(OCc2cccc(Cl)c2)cc1)NO`, the EC50 was more than 200 µM and the IC50 worked out at 29.5 µM.

Turning to `C=CC[C@]1(C(C)Cc2ccc(OC)c(OC)c2)C[C@@H](OC)C=CC1=O` (stereo partly specified), the EC50 is more than 10 µM and the IC50 came to 2.88 µM.

Turning to `O=[N+]([O-])C(=C(NCc1ccccc1)NCc1ccccc1)C(Cl)=C(Cl)Cl`, the EC50 was more than 200 µM and the concentration for half-maximal inhibition (IC50) is 35.5 µM.

For the compound `Cn1c(=O)c2nsnc2n(C)c1=O`, the EC50 is more than 661 µM and the IC50 was more than 661 µM.

In the case of `O=C1CCN=C(NC(=O)C(F)(F)F)N1CCc1c[nH]c2ccccc12`, the EC50 was more than 200 µM and the half-inhibitory concentration (IC50) was more than 200 µM.

For `COc1ccc(N2C(=O)C3c4[nH]c5ccc(OC)cc5c4C4CCC(C(C)(C)C)CC4C3C2=O)cc1` (stereo unspecified), the EC50 was more than 14.8 µM and the IC50 was more than 14.8 µM.

As for `NC(=O)NCNC(N)=O`, the EC50 was more than 676 µM and the IC50 was more than 676 µM.

For the compound `O=C1C2C=CC(C3C=CC2N(Cc2ccccc2)C3=O)N1Cc1ccccc1`, the outcome was inactive.

For the compound `COc1cc2c(c(O)c1OC)c(=O)c1ccccc1n2C`, the EC50 is more than 200 µM and the IC50 is 66.1 µM.

Regarding `O=CNNC(=O)Nc1cccc2ccccc12`, the EC50 is more than 200 µM and the 50% inhibitory concentration (IC50) is more than 200 µM.

In the case of `CC(C)c1cc(C(C)C)c(S(=O)(=O)N=[N+]=[N-])c(C(C)C)c1`, the EC50 is more than 17 µM and the concentration for half-maximal inhibition (IC50) was more than 17 µM.

Take `COc1cc2cccc(N=Cc3c(Br)ccc(OC)c3OC(C)C)c2cc1OC`: the EC50 is more than 3.16 µM and the concentration for half-maximal inhibition (IC50) was more than 3.16 µM.

As for `O=c1oc(-c2ccccc2)cn1-c1ccccc1`, the result was inactive.

Regarding `Cc1nnc2n(c1=O)CCN2C`, the EC50 is more than 200 µM and the 50% inhibitory concentration (IC50) is more than 200 µM.

In the case of `CN(C1=NCCO1)c1cccc2ccccc12`, the EC50 was more than 200 µM and the half-maximal inhibitory concentration (IC50) came to 129 µM.

Turning to `CN(C)CCNC(=O)C1COc2cc(-c3cc(=O)c4ccccc4o3)ccc2O1` (stereo unspecified), the outcome was inactive.

Regarding `Nc1ccc(N=Nc2ccc(-c3ccc(N=Nc4c(S(=O)(=O)O)cc5cc(S(=O)(=O)O)c(N=Nc6cccc([N+](=O)[O-])c6)c(N)c5c4O)cc3)cc2)c2cc(S(=O)(=O)O)ccc12`, the result was active.

As to `O=NNc1ccc2ccccc2n1`, the EC50 is more than 200 µM and the IC50 was more than 200 µM.

Take `CCOC(=O)NC1=NCCS1`: the result was inactive.

For the compound `O=c1[nH]c(=O)n(C2CC(O)C(CO)O2)cc1NN=NCCc1ccccc1` (stereo unspecified), the EC50 is more than 200 µM and the IC50 was more than 200 µM.

As to `CC(C)(C)[Si](C)(C)OCC1OC(n2ccc(=O)[nH]c2=O)C(O[Si](C)(C)C(C)(C)C)C1(O)C/C=N/O` (stereo unspecified), the EC50 was more than 200 µM and the IC50 was determined as 7.59 µM.

As for `[N-]=[N+]=CC(=O)OC1CCOCC1`, the EC50 is more than 200 µM and the IC50 is more than 200 µM.

On to `CC1=C(C)CC2(CCCCC2=O)S(=O)C1` (stereo unspecified), for which the EC50 was more than 1100 µM and the IC50 was 851 µM.

For the compound `Nc1cccc2cc(Cl)cnc12`, the EC50 is more than 200 µM and the IC50 is more than 200 µM.

With `O=C1N(Cc2ccccc2)[C@H]2CS(=O)(=O)C[C@@H]2N1Cc1ccccc1`, the EC50 is more than 200 µM and the IC50 is more than 200 µM.

As for `CCN(CC)CCSc1nc2c([N+](=O)[O-])cccc2[nH]1`, the outcome was inactive.

Turning to `CCCCCCCCCCCCCCCCCCOc1ccc2c(c1)-c1nc-2nc2[nH]c(nc3nc(nc4[nH]c(n1)c1cc(OCCCCCCCCCCCCCCCCCC)ccc41)-c1ccc(OCCCCCCCCCCCCCCCCCC)cc1-3)c1cc(OCCCCCCCCCCCCCCCCCC)ccc21`, the EC50 was more than 8.51 µM and the IC50 is more than 8.51 µM.

As to `Cc1c2c(oc(=O)c1NC(=O)c1ccccc1)CCCCCC2`, the EC50 is more than 200 µM and the half-inhibitory concentration (IC50) is more than 200 µM.

With `CCOc1ccc(NC(=S)NC=C(C#N)C#N)cc1`, the EC50 is more than 200 µM and the IC50 is more than 200 µM.

`Cc1c(CCOC=O)c(=O)[nH]c2nncn12`: the EC50 was 14.1 µM and the IC50 is more than 200 µM.

Regarding `C=CCn1c(-c2ccccc2)cs/c1=N\C(P(=O)(O)O)P(=O)(O)O`, the EC50 was more than 200 µM and the IC50 was more than 200 µM.

For the compound `COc1cc(Cl)cc(=O)c(O)c1OC`, the EC50 was more than 437 µM and the concentration for half-maximal inhibition (IC50) was 20.9 µM.

Regarding `Cc1nc2sc(CCl)nn2c(=O)c1Cl`, the EC50 was more than 200 µM and the IC50 stood at 3.98 µM.

Regarding `O=C1NC2(CCCC2)C(=O)N2CCCC12` (stereo unspecified), the EC50 is more than 129 µM and the concentration for half-maximal inhibition (IC50) is more than 129 µM.

`CC(=O)NC1=NC(=O)/C(=C/c2ccc3c(c2)OCO3)N1C`: the EC50 is more than 200 µM and the half-maximal inhibitory concentration (IC50) was more than 200 µM.

Take `COC(=O)c1cc(C(=CCCOS(C)(=O)=O)c2cc(Cl)c(OC)c(C(=O)OC)c2)cc(Cl)c1OC`: the EC50 was more than 200 µM and the IC50 came to 14.5 µM.

For `O=C(O)c1ccc(NC(=O)C2C(=O)C(=O)N(c3ccc(C(=O)O)cc3)C2=O)cc1` (stereo unspecified), the EC50 was more than 47.9 µM and the IC50 was more than 47.9 µM.

Consider `Oc1c(N2CCCCC2)cc(-c2cc(N3CCCCC3)c(O)c3ccccc23)c2ccccc12`, for which the EC50 is more than 200 µM and the 50% inhibitory concentration (IC50) was determined as 30.2 µM.

As for `COC(=O)[C@H]1C2c3ccccc3-c3ccccc3C2(OC(C)=O)[C@@]1(Cl)C(=O)OC` (stereo partly specified), the EC50 is more than 43.7 µM and the IC50 is 6.31 µM.

Turning to `COC(=O)c1cc(Cc2cc(Br)c(OC)c(C(=O)OC)c2)cc(Br)c1OC`, the EC50 was more than 200 µM and the half-maximal inhibitory concentration (IC50) was determined as 162 µM.

For `COc1cccc(-c2c(C#N)c(N)nc3c2CCS(=O)(=O)c2ccc(C)cc2-3)c1`, the EC50 is more than 200 µM and the IC50 is more than 200 µM.

Turning to `COC(=O)c1c(C(=O)OC)c2cc(C(=O)c3ccccc3)ccn2c1Cl`, the EC50 was more than 26.9 µM and the half-inhibitory concentration (IC50) was more than 26.9 µM.

For the compound `CN1C(=O)c2c(c3c4ccccc4n(C4OC(CO)C(O)C(O)C4O)c3c3[nH]c4ccccc4c23)C1=O` (stereo unspecified), the EC50 is more than 200 µM and the IC50 was 3.89 µM.

For the compound `CCOC1=NC(O)c2cccn2-c2sccc21` (stereo unspecified), the EC50 was more than 200 µM and the concentration for half-maximal inhibition (IC50) was found to be 126 µM.

As to `N=C(c1ccccc1)N1CCCCC1`, the result was inactive.

As for `O=S(=O)([O-])c1ccc(N=Cc2ccccc2[O-])cc1.O=S(=O)([O-])c1ccc(N=Cc2ccccc2[O-])cc1.[Co+2]`, the EC50 was more than 407 µM and the IC50 turned out to be 23.4 µM.

Consider `CC(C)(CO)N=Cc1ccccc1[O-].CC(C)(CO)N=Cc1ccccc1[O-].[Co+2]`, for which the EC50 was more than 151 µM and the IC50 was more than 151 µM.

On to `O=C(O)c1ccc(C(=O)c2ccccc2)c(C(=O)O)c1`, for which the 50% effective concentration (EC50) is more than 200 µM and the IC50 was more than 200 µM.

As to `O=C(O)c1nn(-c2ccccc2)c2c1CSc1ccccc1-2`, the EC50 was more than 200 µM and the IC50 was 158 µM.

As to `c1ccc(CSC2(SCc3ccccc3)CCCC2)cc1`, the result was inactive.

With `C[C@H](C(=O)C12CC3CC(CC(C3)C1)C2)[C@H](O)c1ccccc1`, the result was inactive.

Consider `CCOC(=O)c1cc2c3c(c(C(C)=O)c(OC)c2[nH]1)N(C(=O)CC)CC3`, for which the EC50 was more than 200 µM and the half-maximal inhibitory concentration (IC50) came out at 16.2 µM.

Take `Clc1ccc(Nc2nc3ccccc3nc2-c2cccs2)cc1Cl`: the EC50 was more than 14.1 µM and the half-maximal inhibitory concentration (IC50) was more than 14.1 µM.

With `C[C@]12CCC3[C@@H](CC[C@@H]4c5nonc5CC[C@]34C)C1CCC(=O)N2` (stereo partly specified), the EC50 is more than 97.7 µM and the half-inhibitory concentration (IC50) was more than 97.7 µM.

On to `O=C1C(NS(=O)(=O)c2ccccc2)=C(n2ccnc2)C(=O)c2ccccc21`, for which the EC50 was more than 200 µM and the IC50 turned out to be 91.2 µM.

Take `O=C1OC(c2ccccc2)(c2ccccc2)CC1CN1CCOCC1` (stereo unspecified): the EC50 is more than 57.5 µM and the half-inhibitory concentration (IC50) turned out to be 12 µM.

On to `NC(=O)N/N=C(/Cc1nc2ccc(C(=O)c3ccccc3)cc2[nH]c1=O)C(=O)Nc1ccc(C(F)(F)F)cc1[N+](=O)[O-]`, for which the outcome was inactive.

As to `O=C(O)CN(CCN(CC(=O)O)CC(=O)O)CCN(CC(=O)O)CC(=O)O`, the EC50 was more than 200 µM and the IC50 is more than 200 µM.

As for `Cc1[nH]c2ccccc2c1C1Cc2ccccc2N1C(=O)/C=C/C=C/c1ccccc1` (stereo unspecified), the EC50 was more than 9.33 µM and the half-maximal inhibitory concentration (IC50) was more than 9.33 µM.

As to `C=C(c1ccc(OC)cc1)C(CC)c1ccc(OC)cc1` (stereo unspecified), the EC50 is more than 200 µM and the half-inhibitory concentration (IC50) came out at 37.2 µM.
